Assay results published in the NIST ThermoML archive (doi:10.1016/j.jct.2011.02.008).

Details: Liquid, Vibrating tube method

C1CCCCC1 [cyclohexane]
mass density [kg/m3]
Details | 288.15 K | 298.15 K | 308.15 K | 318.15 K | 328.15 K | 338.15 K | 348.15 K | 358.15 K
100 kPa | 782.7 | 773.2 | 763.6 | 754 | 744.4 | 734.5 | 724.6 | 714.3
1000 kPa | 783.7 | 774 | 764.5 | 755 | 745.4 | 735.6 | 725.7 | 715.6
5000 kPa | 787 | 777.6 | 768.2 | 759 | 749.7 | 740.2 | 730.8 | 720.9
10000 kPa | 790.7 | 781.8 | 772.6 | 763.7 | 754.7 | 745.7 | 736.5 | 727.2
15000 kPa | 794.1 | 785.6 | 776.8 | 767.9 | 759.5 | 750.7 | 741.9 | 732.9
20000 kPa | – | 789.3 | 780.8 | 772.4 | 764 | 755.5 | 747 | 738.3
25000 kPa | – | 792.9 | 784.6 | 776.4 | 768.2 | 760 | 751.7 | 743.3
30000 kPa | – | 796.8 | 788.3 | 780.3 | 772.3 | 764.3 | 756.2 | 748.1
35000 kPa | – | 799.7 | 791.8 | 784.1 | 776.1 | 768.4 | 760.5 | 752.6
40000 kPa | – | – | 795.2 | 787.7 | 779.9 | 772.3 | 764.6 | 757
45000 kPa | – | – | – | 791.1 | 783.5 | 776 | 768.6 | 761.1
50000 kPa | – | – | – | 794.4 | 787 | 779.7 | 772.3 | 765
55000 kPa | – | – | – | – | – | 783.2 | 776 | 768.9
